Reference: patent US8568736B2, “Polypeptide derivatives of parathyroid hormone (PTH)” (The General Hospital Corporation, priority 1999, dated 2013)
Values joined by “and” are separate entries in the source; they are usually repeats but may differ in a detail not shown here. Identical values can stand only once. No end group written: not given here.

What was measured:
PTH-1 receptor = molecular target: T1, PTH-1 receptor (Homo sapiens, UniProt Q03431); assay: cAMP stimulation in HKRK-B7 cells (LLC-PK1 stably transfected with hPTH-1 receptor); type: cell-based; parameters: expressed in transfected cells; host or cells: LLC-PK1 porcine kidney cells, clone HKRK-B7; settings: for Emax: Emax constrained to ±1 SD of rPTH(1-34) response at 100 nM; for fold more potent than native PTH(1-14): LLC-PK1 cells stably expressing hPTH-1 receptor
T1 sequence (Q03431 27-593): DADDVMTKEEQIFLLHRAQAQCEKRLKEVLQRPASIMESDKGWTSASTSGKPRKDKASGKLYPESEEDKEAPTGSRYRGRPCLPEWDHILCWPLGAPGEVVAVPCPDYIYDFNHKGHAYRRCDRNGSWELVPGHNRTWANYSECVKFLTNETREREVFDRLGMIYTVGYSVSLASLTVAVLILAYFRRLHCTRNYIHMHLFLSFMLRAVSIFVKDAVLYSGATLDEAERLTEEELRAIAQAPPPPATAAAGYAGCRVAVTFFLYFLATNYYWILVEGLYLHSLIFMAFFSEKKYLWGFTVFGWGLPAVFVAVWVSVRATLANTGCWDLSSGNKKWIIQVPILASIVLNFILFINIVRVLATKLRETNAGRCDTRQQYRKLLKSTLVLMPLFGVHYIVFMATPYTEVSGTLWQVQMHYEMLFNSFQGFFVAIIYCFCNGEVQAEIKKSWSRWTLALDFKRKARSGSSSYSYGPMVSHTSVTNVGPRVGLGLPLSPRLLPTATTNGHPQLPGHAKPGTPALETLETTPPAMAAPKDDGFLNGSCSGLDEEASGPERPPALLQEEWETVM
Excerpt: Stably transfected derivatives of the porcine kidney cell line LLC-PK1, HKRK-B7 (Takasu, H., et al., J. Bone Miner. Res. 14:11-20 (1999)) and hPR2-20, express the human PTH-1 and human PTH-2 receptors respectively. The HKRK-B7 LLC-PK1 cell line expresses the hPTH-1 receptor at ˜1×10^6 receptors/cell (Takasu, H., et al., J. Bone Miner. Res. 14:11-20 (1999)), and the hPR2-22 LLC-PK1 cell line expresses the hPTH-2 receptor at ˜0.8×10^6 receptors/cell (provided by H. Takasu and F. R. Bringhurst, Endocrine Unit, Massachusetts General Hospital).
Stimulation of cells with peptide analogs was performed in 24-well plates. Cells were rinsed with 0.5 mL of binding buffer and treated with 200 μL of cAMP assay buffer (Dulbecco's modified Eagle's medium containing 2 mM 3-isobutyl-1-methylxanthine, 1 mg/mL bovine serum albumin, 35 mM Hepes-NaOH, pH 7.4) and 100 μL of binding buffer containing varying amounts of peptide analog (final volume=300 μL). The medium was removed after incubation for 1 h at room temperature, and the cells were frozen (−80° C.), lysed with 0.5 mL 50 mM HCl, and refrozen (−80° C.). The cAMP content of the diluted lysate was determined by radioimmunoassay. Where possible, cAMP EC50 and Maximum response values were determined using nonlinear regression (see below).
Intracellular cAMP accumulation may be measured as described by Abou-Samra et al., J. Biol. Chem. 262:1129, 1986) or other methods known to those of skill in the art. Intracellular cAMP is extracted by thawing the cells in 1 ml of 50 mM HCl and analyzed by a specific radioimmunoassay using an anti-cAMP antibody (e.g., Sigma, St. Louis, Mo.). A cAMP analog (2′-O-monosuccinyl-adenosine 3′:5′-cyclic monophosphate tyrosyl methyl ester, obtained from Sigma) which is used as a tracer for cAMP is iodinated by the chloramine T method. Free iodine is removed by adsorbing the iodinated cAMP analog onto a C18 Sep-pak cartridge (Waters, Milford, Mass.). After washing with dH2O, the iodinated cAMP analog is eluted from the Sep-pak Cartridge with 40% acetonitrille (ACN) and 0.1% trifluoroacetic acid (TFA). The iodinated cAMP analog is lyophilized, reconstituted in 1 ml 0.1% TFA, and injected into a C18 reverse phase HPLC column (Waters). The column is equilibrated with 10% ACN in 0.1% TFA, and eluted with gradient of 10-30% ACN in 0.1% TFA. This allows separation of the mono-iodinated cAMP analog from the non-iodinated cAMP analog. The tracer is stable for up to 4 months when stored at −20° C. The standard used for the assay, adenosine 3′:5′-cyclic monophosphate, is purchased from Sigma. Samples (1-10 µl of HCl extracts) or standards (0.04-100 fmol/tube) are diluted in 50 mM Na-acetate (pH 5.5), and acetylated with 10 μl of mixture of triethylamine and acetic anhydride (2:1 vol:vol). After acetylation, cAMP antiserum (100 μl) is added from a stock solution (1:4000) made in PBS (pH 7.4), 5 mM EDTA and 1% normal rabbit serum. The tracer is diluted in PBS (pH 7.4) with 0.1% BSA, and added (20,000 cpm/tube). The assay is incubated at 4° C. overnight. The bound tracer is precipitated by adding 100 μl of goat anti-rabbit antiserum (1:20 in PBS) and 1 ml of 7% polyethyleneglycol (MW 5000-6000), centrifuging at 2000 rpm for 30 min. at 4° C. The supernatant is removed and the bound radioactivity is counted in a gamma-counter (Micromedic). To compute the cAMP data, logit calculations were performed in Excel spreadsheets. Typically, the assay sensitivity is 0.1 fmol/tube, and the standard concentration that displaces 50% of tracer is 5 fmol/tube.
All calculations were performed using Microsoft Excel. Nonlinear regression analysis of cAMP stimulation data was performed using parameters, defined as the Minimum, Maximum, Emax, midpoint (EC50), and slope of the response curve. The predicted response (yp) for a given dose (x) of peptide was calculated using the following equation: yp=Min+[(Max−Min)/(1+(EC50/x)^slope)]. […]

[1] = system: truncated PTH-1 receptor rP1R-ΔNt; assay: cAMP with truncated rat PTH-1 receptor lacking the N-terminal extracellular domain (rP1R-ΔNt); type: cell-based; settings: COS-7 cells expressing rP1R-ΔNt
PTH-1 receptors = settings: cells expressing (high levels of) PTH-1 receptors; Luck et al. 1999; read-out: EC50 adenyl cyclase/cAMP; cited from earlier work
[2] = system: truncated PTH-1 receptor rP1R-ΔNt; settings: Luck et al. 1999; cited from earlier work

AVAEIQLMHAR-NH2 [compound 6, AlaValAlaGluIleGlnLeuMetHisAlaArg-amide]
cAMP signaling activity (in words) (PTH-1 receptor; HKRK-B7 cells, dose-response): signaling activity was readily observed
Emax (PTH-1 receptor; HKRK-B7 cells): 248 ± 13 picomole/well

AVAEIQLMHARAKH-NH2 [Peptide #1, AlaValAlaGluIleGlnLeuMetHisAlaArgAlaLysHis-amide]
Emax (PTH-1 receptor; HKRK-B7 cells): 264 ± 16 picomole/well
fold more potent than native PTH(1-14) (PTH-1 receptor; cAMP): 160 fold
fold more potent than native PTH(1-14) (PTH-1 receptor; cAMP, listed as [A^3, A^10, R^11, A^12]rPTH(1-14)amide): 100 fold

AVSEIQLMHNLGKH-NH2 [native rPTH(1-14), AVSEIQLMHNLGKH, reference compound]
cAMP formation with rP1R-ΔNt (in words) [1]: stimulated cAMP formation
EC50 (PTH-1 receptors): ~100 µM and 100 µM
potency with truncated vs intact rPTH-1 receptor (in words) [2]: as potent
Emax (PTH-1 receptor; HKRK-B7 cells): 299 ± 27 picomole/well

AVAEIQLMHARAKHLNSMERVEWLRKKLQDVHNY-NH2 [Peptide #7]
fold more potent than the two controls, rPTH(1-34) and hPTH(1-34) (PTH-1 receptor; HKRK-B7 cells, cAMP): about 2 fold
Emax (PTH-1 receptor; HKRK-B7 cells): 244 picomole/well

CCCC[C@H](NC(=O)[C@H](CCCNC(=N)N)NC(=O)[C@H](CCC(=O)O)NC(=O)[C@@H](NC(=O)[C@H](CO)NC(=O)[C@H](C)NC(=O)[C@H](CC(C)C)NC(=O)[C@H](Cc1c[nH]cn1)NC(=O)[C@H](CCCCN)NC(=O)CNC(=O)[C@H](CC(C)C)NC(=O)[C@H](CC(N)=O)NC(=O)[C@H](Cc1c[nH]cn1)NC(=O)[C@H](CCCC)NC(=O)[C@H](CC(C)C)NC(=O)[C@H](CCC(N)=O)NC(=O)[C@@H](NC(=O)[C@H](CCC(=O)O)NC(=O)[C@H](CO)NC(=O)[C@@H](NC(=O)[C@H](C)N)C(C)C)[C@@H](C)CC)C(C)C)C(=O)N[C@@H](CCC(N)=O)C(=O)N[C@@H](Cc1c[nH]c2ccccc12)C(=O)N[C@@H](CC(C)C)C(=O)N[C@@H](CCCNC(=N)N)C(=O)N[C@@H](CCCCN)C(=O)N[C@@H](CCCCN)C(=O)N[C@@H](CC(C)C)C(=O)N[C@@H](CCC(N)=O)C(=O)N[C@@H](CC(=O)O)C(=O)N[C@H](C(=O)N[C@@H](Cc1c[nH]cn1)C(=O)N[C@@H](CC(N)=O)C(=O)N[C@@H](Cc1ccc(O)cc1)C(N)=O)C(C)C [[Nle8, 21, Y34]rPTH(1-34), [Nle^8,21,Tyr^34]-rPTH(1-34)NH2, reference compound]
EC50 Log M (PTH-1 receptor; HKRK-B7 cells (hPTH-1 Receptor), cAMP, mean ± SEM): −8.6 ± 0.1 Log M
Emax (PTH-1 receptor; HKRK-B7 cells): 293 ± 29 picomole/well
